Measured values taken from patent US20240241137A1, “METHOD FOR SELECTING A DRUG CANDIDATE FOR TREATING OR PREVENTING OR DELAYING THE ONSET OR PROGRESSION OF AN AMYLOIDOGENIC DISEASE” (NATIONAL HEALTH RESEARCH INSTITUTES, priority 2022, published 2024).
“Also recorded” adds a separate entry of the source. Counter-ions that a name gives are not always drawn.

Columns and labels:
[1] = molecular target: LPS-Aβ42 complex (Homo sapiens, UniProt P05067); assay: Real-time mass-sensitive measurement (QCM-D) of the non-equilibrium oscillation between LPS and Aβ42; format: binding; conditions: for effect on the oscillatory event (lifetime) of the LPS-Aβ42 complex: bait in combination with LPS, Aβ42 100 μM, baits 20 μM; for time (apparent lifetime of the non-equilibrium interaction): mass dropping from 80% to 20%
Chain of LPS-Aβ42 complex (P05067 672-713 limits assumed, one chain of several): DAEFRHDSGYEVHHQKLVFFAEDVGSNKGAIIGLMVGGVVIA
Description: The lifetime of each sample was indicated in colored lines.
A real-time mass-sensitive measurement strategy involving quartz crystal microbalance with dissipation explorer (QCM-D) and single-channel module (Q-Sense, Biolin Scientific, Vastra Frölunda, Sweden) was used to evaluate the non-equilibrium interaction between Aβ42 and two baits (LPS and natural compounds). In addition, the steady-state circular dichroism and fluorescence spectra upon excitation of tryptophan at different temperatures were recorded to reveal the secondary structures of Aβ42 in the presence and absence of LPS. The fluorescent T jump system was utilized to confirm the adsorbing capability of LPS to Aβ42 by reading the corresponding protein dynamics. The detailed methods and materials are described as follows.
Preparation of the first bait: A solution of 0.1 mM MCL-NHS and LPS at a ratio of 1:1 was mixed in DI water. The mixture was cooled at 25° C. overnight (please refer to linker modification in the following), which spontaneously allowed the conjugation of the amine group of LPS and NHS-activated carboxylic acid of MCL. Owing to the structural complexity, it was difficult to validate the amide bond formation between MCL-NHS and LPS via NMR identification (FIG. 1). Nevertheless, the supramolecular host-guest recognition between LPS and colistin (a cyclic peptide) was used to identify the existence of MCL-modified LPS (first bait). The details of the mass-sensitive measurement are described in the next section.
Linker modification: The conjugation of the first bait (LPS) and linker (3-mercaptopanyl-n-hydroxysuccinimide ester) was mixed together for overnight reaction before anchoring on the gold sensor. The linker may be linked to one or two —NH2 groups in the core oligosaccharide part of LPS.
Real-time mass-sensitive measurement: Quartz crystal microbalance with dissipation explorer (QCM-D) and single-channel module (Q-Sense™, BIOLIN SCIENTIFIC®, Vastra Fralunda, Sweden) was used to evaluate the non-equilibrium interaction between Aβ42 and two baits (LPS and natural compounds). Prior to use, the new and reused gold sensors (a circle shape with a diameter of 1.0 cm, Q-Sense Sensors™, BIOLIN SCIENTIFIC®) were precleaned using a UV/ozone cleaner and piranha solution, which was a mixture of 30% H2O2 and concentrated H2SO4 at 1:3 (v/v). This piranha solution reacts violently with organic materials and should be handled with great care and protection. After washing of the gold sensors with LPS-free DI water, the first bait was initially inputted in a flow model at a flow rate of 0.15 mL/min under 25° C., which could be immediately anchored on a clean gold sensor. We conducted all measurements by switching between the continuous flowing model (CFM) and flowing-to-soaking model (FSM) after washing; the CFM maintained the same flow rate (0.15 mL/min), and the FSM allowed the flow velocity to slow down or completely stop. A sampling interval of 0.3 s was used to collect each frequency readout at seven overtones […], while the quartz crystal resonator of the QCN-D system settled at a fundamental resonant frequency (5 MHz). The Q-Sense system was utilized in addition to the following Sauerbrey equation to obtain the third overtone (n=3) and calculate the mass change after measurement.
where Δm is the change in the adsorbed mass of molecules; Δf is the time-responded frequency observed at the third overtone; and C is a constant that is equal to 17.7 ng/cm^2 at the resonance frequency of the quartz oscillator (5 MHz). The equation (Eq. S1) allows a direct quantitative study for mass comparison.
Operation of a real-time sensing platform: To perform the measurements, the LPS-free DI water and other solvents were allowed to continuously flow for about 1 h at 25° C. or until the baseline of two parameters (frequency and dissipation of QCM-D) reached an equilibrium state before sample operation and data collection. […]

[2] = test system: SH—SY5Y cells; assay: Western blot of residual Aβ42 levels (clearance of Aβ42 by neuronal cells); format: cell-based; conditions: co-treatment with low-dose LPS, 72 h
Description: The cell mixture samples were analyzed via 12% SDS-PAGE gel electrophoresis and transferred to a PVDF membrane. […] After hybridization with the primary antibody, the membrane was washed thrice with PBST before the addition of an HRP-conjugated secondary antibody against the primary antibody. The membrane was then washed thrice with PBST before immunoreactive bands were detected by UVP ChemStudio touch ([…] JENA®). The primary antibodies used in this study included the following: anti-Aβ (6E10, BIOLEGEND® 803001), anti-actin ([…]®), and anti-GAPDH (GTX100118). Signal intensity was analyzed using VisionWorks 9.1 and statistically analyzed using GraphPad Prism 9.

[3] = test system: SH—SY5Y neuronal cells; assay: Cell viability (CCK8) of Aβ42-treated neuronal cells; conditions: for rescue effect of Aβ42-induced cell apoptosis: co-treatment with low dose (10 nM) LPS, bait 1, 10, 50, 100 μM, versus LPS alone; for rescue of Aβ42-induced cell death by small baits alone: without co-treatment with LPS
Description: Cell viability: Neuronal cells were maintained in MEM (GIBCO® 51200-038) supplemented with 10% FBS, 1×MEM NEAA (GIBCO® 11140-050), 1×L-glutamine (GIBCO® 25030-081), and 1×sodium pyruvate (GIBCO® 1136-070). Neuronal SH—SY5Y cells were plated at a density of 8,000 cells per well in 96-well plates and allowed to attach overnight at 37° C. in 5% CO2 humidified air. Aβ42 (100 μM), LPS (10 nM), CS (100 μM), EG (100 PM), and morin (100 μM) were then added to each medium containing 2.5% dimethyl sulfoxide and sterilized using UV light. Thereafter, the solution containing Aβ42 and LPS was mixed with CS, EG, or morin at different concentrations ranging from 1 to 100 μM and added into the plate of the SH—SY5Y cells. The medium was then replaced, and the remaining mixture was incubated for 72 h at 37° C. in 5% CO2 humidified air. Cell viability was measured using the CCK8 (SIGMA-ALDRICH® 96992) assay according to the manufacturer's protocol. Before the Aβ42 treatment of Neuronal SH—SY5Y cells, a 30 k filter was used to remove unbound LPS from the LPS-insulted Aβ42 mixture.

[4] = molecular target: T1, Aβ42 (Homo sapiens, UniProt P05067); assay: Fluorescent T jump protein dynamics of Aβ42 and LPS-Aβ42; conditions: two-state model analysis upon T jump
T1 sequence (P05067 672-713 limits assumed): as the sequence (P05067 672-713 limits assumed, one chain of several) above
Description: A fluorescent T jump system was constructed on the basis of a previous report (Yang, C. T., Chu, L. K. Phys. Chem. Chem. Phys. 2022, 24, 11079-11085), with slight modification. The aqueous solutions were sandwiched by two quartz windows (diameter=25 mm, thickness=2 mm, #14-962, EDMUND OPTICS®) separated by a drilled Teflon spacer of a thickness of 0.8 mm. The diameter of the hole in the center was 2.0 mm. The circular infrared beam, which was used to heat up water to increase the temperature, from a continuous-wave diode laser at 1550 nm was focused with two convex lenses (f=100.0 mm; f=75.6 mm) to a diameter of 1.6 mm before entering the sample cell. […] The fluorescence was collected using a MicroSpot Focusing Objective (LMU-20X-NUV, THORLABS®, 325-500 nm) and later focused through a 200 μm pinhole by a lens (f=50.0 mm) to an optical fiber (300-1,200 nm). Thereafter, the collected fluorescence light was introduced to a photomultiplier tube and filtered using an optical filter to define the detection range at 300-445 nm. The voltage signal from the photomultiplier was amplified by a factor of 20 using a voltage pre-amplifier, and further recorded using an oscilloscope.
The photobleaching-induced fluorescence decrease should be considered in the evolution of the fluorescence intensity change of Aβ42 and LPS-A342 upon T jump. […]

[5] = molecular target: T1, Aβ42; assay: Circular dichroism of Aβ42 and LPS-Aβ42; conditions: Aβ42 96 μM, LPS 160 nM, 25° C.
Description: Circular dichroism (CD): Approximately 300 μL of (96 μM) and mixtures of Aβ42 (96 μM) and LPS (160 nM) were loaded into a quartz cuvette of an optical length of 1 mm (110-1-40, HELLMA ANALYTICS®) and measured using a spectrometer equipped with a thermostat (Model 410, AVIV BIOMEDICAL®, Inc.) in 190-260 nm at 25° C. with a spectral resolution of 1 nm.

Compound: O=c1c(O)c(-c2cc(O)c(O)c(O)c2)oc2cc(O)cc(O)c12 [myricetin]
- effect on the oscillatory event (lifetime) of the LPS-Aβ42 complex [1]: did not perturb the oscillatory event

Compound: O=C(OC[C@H]1O[C@@H](OC(=O)c2cc(O)c(O)c(OC(=O)c3cc(O)c(O)c(O)c3)c2)[C@H](OC(=O)c2cc(O)c(O)c(OC(=O)c3cc(O)c(O)c(O)c3)c2)[C@@H](OC(=O)c2cc(O)c(O)c(OC(=O)c3cc(O)c(O)c(O)c3)c2)[C@@H]1OC(=O)c1cc(O)c(O)c(OC(=O)c2cc(O)c(O)c(O)c2)c1)c1cc(O)c(O)c(OC(=O)c2cc(O)c(O)c(O)c2)c1 [tannic acid]
- effect on the oscillatory event (lifetime) of the LPS-Aβ42 complex [1]: did not perturb the oscillatory event

Compound: CCN(CC)CCCC(C)Nc1c2ccc(Cl)cc2nc2ccc(OC)cc12 (centres unmarked) [quinacrine dihydrochloride]
- effect on the oscillatory event (lifetime) of the LPS-Aβ42 complex [1]: did not perturb the oscillatory event

Compound: chondroitin sulfate sodium [CS]
- residual Aβ42 levels from the total lysate [2]: not observed; also recorded: no impact on the degradation of Aβ42
- rescue effect of Aβ42-induced cell apoptosis ([3]; Aβ42 100 μM): not observed
- rescue of Aβ42-induced cell death by small baits alone ([3]; Aβ42 100 μM): could not alleviate Aβ42-induced cell death
- effect on the oscillatory event (lifetime) of the LPS-Aβ42 complex [1]: shortened the binding event; also recorded: shortening

Compound: O=c1c(O)c(-c2ccc(O)cc2O)oc2cc(O)cc(O)c12 [morin]
- residual Aβ42 levels from the total lysate [2]: significantly decreased; also recorded: dose-dependent depletion of Aβ42
- rescue effect of Aβ42-induced cell apoptosis ([3]; Aβ42 100 μM): in a dose-dependent manner; also recorded: could be observed
- rescue of Aβ42-induced cell death by small baits alone ([3]; Aβ42 100 μM): could not alleviate Aβ42-induced cell death
- ln(γ) ([1]; [morin] 20 nM): 2.75
- Δt = tw/morin − tw/o morin ([1]; [morin] 20 nM): 63 s
- γ (lifetime increment percentage) ([1]; [morin] 20 nM): 15.7%
- time (apparent lifetime of the non-equilibrium interaction) ([1]; [morin] 20 nM): 465 s
- ln(γ) ([1]; [morin] 50 nM): 3.47
- Δt = tw/morin − tw/o morin ([1]; [morin] 50 nM): 129 s
- γ (lifetime increment percentage) ([1]; [morin] 50 nM): 32.1%
- time (apparent lifetime of the non-equilibrium interaction) ([1]; [morin] 50 nM): 531 s
- ln(γ) ([1]; [morin] 100 nM): 4.22
- Δt = tw/morin − tw/o morin ([1]; [morin] 100 nM): 275 s
- γ (lifetime increment percentage) ([1]; [morin] 100 nM): 68.4%
- time (apparent lifetime of the non-equilibrium interaction) ([1]; [morin] 100 nM): 677 s
- ln(γ) ([1]; [morin] 200 nM): 4.42
- Δt = tw/morin − tw/o morin ([1]; [morin] 200 nM): 335 s
- γ (lifetime increment percentage) ([1]; [morin] 200 nM): 83.3%
- time (apparent lifetime of the non-equilibrium interaction) ([1]; [morin] 200 nM): 737 s
- effect on the oscillatory event (lifetime) of the LPS-Aβ42 complex [1]: extended; also recorded: significant prolongation; also recorded: significant time extension; also recorded: prolonged in a dose-dependent manner
- n, power to which bait concentration is taken (slope of ln(γ) versus ln([morin])) ([1]; linear regression of Table S1 data): 0.76±0.10

Compound: O=C(O[C@@H]1Cc2c(O)cc(O)cc2O[C@@H]1c1cc(O)c(O)c(O)c1)c1cc(O)c(O)c(O)c1 [EG, epigallocatechin gallate]
- residual Aβ42 levels from the total lysate [2]: not observed; also recorded: no impact on the degradation of Aβ42
- rescue of Aβ42-induced cell death by small baits alone ([3]; Aβ42 100 μM): could not alleviate Aβ42-induced cell death
- effect on the oscillatory event (lifetime) of the LPS-Aβ42 complex [1]: did not perturb the oscillatory event

Compound: O=C(/C=C/c1ccc(O)c(O)c1)O[C@H](Cc1ccc(O)c(O)c1)C(=O)O [rosmarinic acid]
- effect on the oscillatory event (lifetime) of the LPS-Aβ42 complex [1]: did not perturb the oscillatory event

Compound: COc1cc(/C=C/C(=O)CC(=O)/C=C/c2ccc(O)c(OC)c2)ccc1O [curcumin]
- effect on the oscillatory event (lifetime) of the LPS-Aβ42 complex [1]: did not perturb the oscillatory event

Compound: Lipopolysaccharide [LPS]
- cell viability ([3]; LPS of Aβ42 solution removed): less than 10%
- viability of neuronal cells in medium containing Aβ42 ([3]; high dose (1000 nM) of LPS, Aβ42 100 μM): 100%
- effect on thermally induced protein dynamics of Aβ42 [4]: retarded the upward response
- lifetime of mass oscillation ([1]; LPS anchored on sensor, Aβ42, FSM, no bait): less than 30 min
- effect on secondary structure of Aβ42 (CD spectra) [5]: does not initiate the unfolding of the secondary structure of Aβ42
